One assay addresses T1, NcDIM-5 (Neurospora crassa, UniProt Q8X225).
T1 construct: GST; made in house
T1 sequence (Q8X225 1-331): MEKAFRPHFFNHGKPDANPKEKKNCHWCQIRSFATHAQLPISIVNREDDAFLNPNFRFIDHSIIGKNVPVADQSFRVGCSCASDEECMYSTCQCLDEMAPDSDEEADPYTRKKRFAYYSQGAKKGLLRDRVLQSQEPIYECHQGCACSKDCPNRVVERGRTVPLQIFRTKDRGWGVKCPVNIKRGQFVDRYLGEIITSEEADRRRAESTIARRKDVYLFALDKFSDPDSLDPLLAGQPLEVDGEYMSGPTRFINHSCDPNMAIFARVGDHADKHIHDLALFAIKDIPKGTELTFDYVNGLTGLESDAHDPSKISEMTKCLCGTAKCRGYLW
Conditions: literature values; cited from earlier work.

The target of the next assay is T2, GsSDMT (Galdieria sulphuraria, UniProt M2XPA0).
T2 sequence (M2XPA0 2-297): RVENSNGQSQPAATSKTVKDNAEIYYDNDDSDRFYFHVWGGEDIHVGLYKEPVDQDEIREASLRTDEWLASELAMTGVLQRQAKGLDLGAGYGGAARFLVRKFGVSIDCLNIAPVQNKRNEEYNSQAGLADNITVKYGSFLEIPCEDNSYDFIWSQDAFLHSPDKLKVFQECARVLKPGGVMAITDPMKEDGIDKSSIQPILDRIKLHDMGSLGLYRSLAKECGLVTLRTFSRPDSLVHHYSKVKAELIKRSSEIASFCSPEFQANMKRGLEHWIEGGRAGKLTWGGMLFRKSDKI
Conditions: lit. (54); cited from earlier work.

In the next assay the target is T3, deaminase TM0936 (Thermotoga maritima, UniProt Q9X034).
T3 construct: polyhistidine; made in house; host or cells: bacteria
T3 sequence (Q9X034 1-406): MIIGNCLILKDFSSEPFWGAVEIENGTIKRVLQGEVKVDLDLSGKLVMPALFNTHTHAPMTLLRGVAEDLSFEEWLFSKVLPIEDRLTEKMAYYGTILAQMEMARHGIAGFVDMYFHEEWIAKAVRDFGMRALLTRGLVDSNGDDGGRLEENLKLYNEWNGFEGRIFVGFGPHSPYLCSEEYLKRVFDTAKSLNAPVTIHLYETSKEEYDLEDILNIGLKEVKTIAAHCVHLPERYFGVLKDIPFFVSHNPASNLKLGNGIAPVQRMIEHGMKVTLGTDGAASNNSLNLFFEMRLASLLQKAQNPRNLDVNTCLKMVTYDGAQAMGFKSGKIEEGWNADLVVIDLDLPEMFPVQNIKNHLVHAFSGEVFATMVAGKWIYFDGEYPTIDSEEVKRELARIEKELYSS
In words: Deamination by coupling enzyme TM0936. The class given is biochemical. On the procedure: FIG. 9A-9D. Sinefungin is a positive control compatible with the 1-Step EZ-MTase assay. (A) MTAN-based assays catabolize the methyltransferase inhibitor sinefungin (SIN). […] (C) pH-dependence of the reaction between sinefungin and TM0936. […] (D) Inhibition of the sarcosine/dimethylglycine methyltransferase by sinefungin. […] The initial methyltransfer rates were recorded at 263 nm. Further analysis provided the inhibition constant Ki (1.8±0.4 μM).

Another assay concerns the target T4, TbPRMT7 (Trypanosoma brucei brucei, UniProt Q582G4).
T4 construct: made in house
Briefly: 1-Step EZ-MTase UV-based coupled assay, TbPRMT7 kinetics (incl. ionic strength). The class given is biochemical. As to conditions: for Km / kcat: pH=7.60, 25 mM phosphate, co-substrate saturating. On the procedure:
Briefly, the 250-μL reaction mixtures from a same row contained 25 mM phosphate buffer pH=7.60, 1 mM βME, 10% glycerol, 4 μM coupling deaminase TM0936, 1.0 μM TbPRMT7 and various peptide concentrations (16.6-243.3 μM; in the first well, peptide acceptor was omitted to account for background signal—natural decomposition of SAM). Reactions started upon addition of SAM (25.8 μM saturating final concentration) and absorbance was recorded. […] Fit to the Michaelis-Menten model (Eq. 5) provided corresponding kinetic parameters:
Briefly, the measurements consisted of two experimental subsets: MTase reactions (both SAM and peptide added) and MTase blanks (SAM was added without peptide to account for natural SAM decomposition). The 250-μL reaction mixtures from a same row contained 25 mM phosphate buffer pH=7.60, 1 mM βME, 10% glycerol, 4 μM coupling deaminase TM0936, 402 nM TbPRMT7 and various SAM concentrations (1.53-20.0 μM). […] Initial rates were first corrected for background signal, then plotted against SAM concentrations and fitted to the Morrison kinetic model to yield corresponding kinetic parameters.
Kinetic behavior for 8-aza-SAM against MTases (acceptor sat.)—Briefly, kinetic parameters were determined at 20° C. in a UV-Star 96-well flat bottom plate (Greiner Bio-One, #655801) by continuous monitoring of absorbance at 282 nm using a SpectraMax M5 instrument (Molecular Devices). As for SAM experiments, the measurements consisted of two experimental subsets: MTase reactions (both 8-aza-SAM and acceptor added) and MTase blanks (8-aza-SAM was added without acceptor to account for natural 8-aza-SAM decomposition). The 250-μL (60-μL) reaction mixtures from a same row contained 50 mM phosphate buffer pH=7.60 (7.80), 1 mM βME, 10% glycerol (5% glycerol, 100 μM MgCl2), 4 μM coupling deaminase TM0936, either 1.5 μM CePRMT5 or 402 nM TbPRMT7 (or 610 nM GsSDMT) and various 8-aza-SAM concentrations. […] Initial rates were first corrected for background signal, then plotted against 8-aza-SAM concentrations and fitted to the Michaelis-Menten equation to yield corresponding kinetic parameters. The kinetic data from CePRMT5 were fit to the following Eq. 6 to reflect substrate inhibition observed at higher 8-aza-SAM concentration:
Experiments were conducted following TbPRMT7 protocol above. Briefly, the 250-μL reaction mixtures from a same row contained either 25, 50, 75 or 100 mM phosphate buffer pH=7.60, 1 mM βME, 10% glycerol, 4 μM coupling deaminase TM0936, 1.0 μM TbPRMT7 and various peptide concentrations (16.6-243.3 μM; in the first well, peptide acceptor was omitted to account for background signal—natural decomposition of SAM). Reactions started upon addition of SAM (25.8 μM saturating final concentration) and absorbance was recorded. […] The four fits to the Michaelis-Menten equation (kcat fixed at 29 h^−1) provided corresponding Km values and established impact of ionic strength onto this kinetic parameter.

Entries after “also recorded” stand apart in the source; their conditions may differ.

T4 sequence (Q582G4 whole entry): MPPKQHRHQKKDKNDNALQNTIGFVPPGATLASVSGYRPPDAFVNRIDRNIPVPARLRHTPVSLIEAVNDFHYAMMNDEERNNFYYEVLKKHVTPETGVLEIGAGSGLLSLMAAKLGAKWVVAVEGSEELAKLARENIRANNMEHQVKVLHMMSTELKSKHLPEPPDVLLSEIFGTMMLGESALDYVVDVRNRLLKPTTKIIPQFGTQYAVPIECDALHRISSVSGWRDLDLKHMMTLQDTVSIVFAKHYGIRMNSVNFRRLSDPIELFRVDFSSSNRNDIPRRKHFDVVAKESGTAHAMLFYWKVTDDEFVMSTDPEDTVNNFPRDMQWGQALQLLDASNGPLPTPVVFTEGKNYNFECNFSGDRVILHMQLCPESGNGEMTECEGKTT

For the compound `C[S+](CC[C@H](N)C(=O)O)C[C@H]1O[C@@H](n2cnc3c(N)ncnc32)[C@H](O)[C@@H]1O` (stereo partly drawn) [SAM, S-adenosyl-L-methionine], the Km at NcDIM-5 is 0.68 ± 0.2 µM; on TbPRMT7, 1.1 ± 0.2 µM. The figures for the kcat on NcDIM-5, at GsSDMT and at TbPRMT7 were 0.000861 s⁻¹, 0.867 ± 0.067 s⁻¹ and 0.00619 ± 0.00017 s⁻¹, respectively. The “reactivity as TM0936 substrate” value at deaminase TM0936 is listed as “unable to catabolize; also recorded: inability to catabolize”.
On to `C[S+](CC[C@H](N)C(=O)O)C[C@H]1O[C@@H](n2nnc3c(N)ncnc32)[C@H](O)[C@@H]1O` (stereo partly drawn) [8-aza-SAM, S-8-aza-adenosyl-L-methionine], for which, at TbPRMT7, the “substrate inhibition (inhibitory behavior of the analog)” value is listed as “not observed”, the Km was determined as 15.3 ± 0.7 µM and the kcat is 0.00639 ± 0.00011 s⁻¹.

The values are drawn from patent US20230220443A1, “CHARACTERIZATION OF S-ADENOSYL-L-METHIONINE-CONSUMING ENZYMES WITH 1-STEP EZ-MTASE: A UNIVERSAL COUPLED-ASSAY” (ALBERT EINSTEIN COLLEGE OF MEDICINE, priority 2017, published 2023).
